In ChEMBL document CHEMBL5113400, “Design, synthesis, and biological evaluation of trizole-based heteroaromatic derivatives as Bcr-Abl kinase inhibitors” (Eur J Med Chem, 2022):

Molecular target: Platelet-derived growth factor receptor alpha (Homo sapiens) (UniProt P16234)
Test: Inhibition of recombinant human PDGFRalpha at 10 uM for 10 mins followed by substrate addition in presence of ATP and measured after 100 mins by ADP-Glo kinase assay
Settings: time 110.0 min

Platelet-derived growth factor receptor alpha (Homo sapiens), sequence (P16234 whole entry): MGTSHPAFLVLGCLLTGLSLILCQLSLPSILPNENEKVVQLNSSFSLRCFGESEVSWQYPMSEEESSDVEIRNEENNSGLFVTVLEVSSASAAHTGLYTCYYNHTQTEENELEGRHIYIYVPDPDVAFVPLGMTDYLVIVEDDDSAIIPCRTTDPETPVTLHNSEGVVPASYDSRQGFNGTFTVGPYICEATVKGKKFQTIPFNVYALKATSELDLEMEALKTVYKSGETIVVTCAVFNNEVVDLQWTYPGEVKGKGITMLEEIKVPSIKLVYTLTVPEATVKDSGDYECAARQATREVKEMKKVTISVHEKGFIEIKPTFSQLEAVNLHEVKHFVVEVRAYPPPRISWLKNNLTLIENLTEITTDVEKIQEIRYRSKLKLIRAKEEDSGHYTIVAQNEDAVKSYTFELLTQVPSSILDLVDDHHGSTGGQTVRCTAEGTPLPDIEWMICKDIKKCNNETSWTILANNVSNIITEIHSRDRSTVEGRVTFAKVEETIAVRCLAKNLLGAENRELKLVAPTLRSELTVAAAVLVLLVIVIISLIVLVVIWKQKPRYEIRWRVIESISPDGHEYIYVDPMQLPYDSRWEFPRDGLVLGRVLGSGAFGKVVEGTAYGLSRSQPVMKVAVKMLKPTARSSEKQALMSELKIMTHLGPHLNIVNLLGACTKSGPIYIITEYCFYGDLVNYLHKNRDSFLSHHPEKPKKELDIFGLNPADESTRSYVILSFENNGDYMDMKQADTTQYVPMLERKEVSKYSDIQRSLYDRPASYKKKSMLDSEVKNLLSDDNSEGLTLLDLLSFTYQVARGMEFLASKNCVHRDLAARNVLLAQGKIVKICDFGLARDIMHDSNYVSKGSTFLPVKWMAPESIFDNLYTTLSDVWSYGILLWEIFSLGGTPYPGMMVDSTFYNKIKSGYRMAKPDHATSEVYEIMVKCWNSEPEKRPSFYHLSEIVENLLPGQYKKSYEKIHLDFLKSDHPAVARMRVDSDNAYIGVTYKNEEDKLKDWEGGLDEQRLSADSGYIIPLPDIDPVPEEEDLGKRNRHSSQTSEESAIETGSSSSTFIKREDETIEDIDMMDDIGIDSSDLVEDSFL

inhibition: 87.9%
Compound: O=C(Nc1nc2ccc(-c3cn([C@@H]4CN[C@H](C(=O)Nc5ccc(Cl)cc5Cl)C4)nn3)nc2s1)C1CC1
